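Protocol summary: plate cells (96-well), add compound at 5 concentrations, incubate 48 h, interpolate endpoints linearly. GI50 is the concentration that inhibits growth by half.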 Activity calls are given as the source filed them. No stated cut-off is given here; in the data, active = GI50 up to about 1.1 µM and inactive = higher.
What was measured:
Experiment in all cases: DTP human tumour cell line panel, 48 h
K562 = tested on: K562
NCI-H460 = tested on: NCI-H460
A549 = tested on: A549
HCT-15 = tested on: HCT-15
COLO 205 = tested on: COLO 205
CCRF-CEM = tested on: CCRF-CEM
RXF 393 = tested on: RXF 393
SK-MEL-5 = tested on: SK-MEL-5
NCI-H23 = tested on: NCI-H23
T47D = tested on: T47D
HCT-116 = tested on: HCT-116
DU-145 = tested on: DU-145
KM12 = tested on: KM12
SF-539 = tested on: SF-539
CAKI-1 = tested on: CAKI-1
MDA-MB-231 = tested on: MDA-MB-231
MOLT-4 = tested on: MOLT-4
TK-10 = tested on: TK-10
Hs-578T = tested on: Hs-578T
SK-OV-3 = tested on: SK-OV-3

Compound	GI50 (K562)	GI50 (NCI-H460)	GI50 (A549)	GI50 (HCT-15)	GI50 (COLO 205)	GI50 (CCRF-CEM)	GI50 (RXF 393)	GI50 (SK-MEL-5)	GI50 (NCI-H23)	GI50 (T47D)	GI50 (HCT-116)	GI50 (DU-145)	GI50 (KM12)	GI50 (SF-539)	GI50 (CAKI-1)	GI50 (MDA-MB-231)	GI50 (MOLT-4)	GI50 (TK-10)	GI50 (Hs-578T)	GI50 (SK-OV-3)
CC1(C)CCCC2OC2CCC(C)(C)C1=O (stereo not given)	> 100 µM (inactive)	> 100 µM (inactive)	> 100 µM (inactive)	> 100 µM	> 100 µM (inactive)	> 100 µM (inactive)	> 100 µM (inactive)	> 100 µM (inactive)	> 100 µM (inactive)	> 100 µM (inactive)	> 100 µM (inactive)	> 100 µM (inactive)	> 100 µM (inactive)	> 100 µM (inactive)	> 100 µM (inactive)	> 100 µM (inactive)	> 100 µM (inactive)	> 100 µM (inactive)	> 100 µM (inactive)	> 100 µM (inactive)
C[C@@H](CC(=O)OCc1ccccc1)OC1OC(COC(=O)C(C)(C)C)C(OC(=O)C(C)(C)C)C(OC(=O)C(C)(C)C)C1OC(=O)C(C)(C)C (stereo not given in full)	> 100 µM (inactive)	> 100 µM (inactive)	> 100 µM (inactive)	> 100 µM	> 100 µM (inactive)	> 100 µM (inactive)	> 100 µM (inactive)	5.28 µM (inactive)	> 100 µM (inactive)	> 100 µM (inactive)	> 100 µM (inactive)	> 100 µM (inactive)	> 100 µM (inactive)	> 100 µM (inactive)	> 100 µM (inactive)	> 100 µM (inactive)	94.4 µM (inactive)	> 100 µM (inactive)	> 100 µM (inactive)	> 100 µM (inactive)
CC(C)(C)c1cc(C(C)(C)C)c(SC2OC(CO)C(O)C(O)C2O)c(O)c1O (stereo not given)	2.93 µM (inactive)	3.24 µM (inactive)	3.84 µM (inactive)	4.54 µM	8.45 µM (inactive)	5.27 µM (inactive)	0.36 µM (active)	5.57 µM (inactive)	4.42 µM (inactive)	17.6 µM (inactive)	13.1 µM (inactive)	13.7 µM (inactive)	6.87 µM (inactive)	3.48 µM (inactive)	17.9 µM (inactive)	17.8 µM (inactive)	9.1 µM (inactive)	12.1 µM (inactive)	3.22 µM (inactive)	15.2 µM (inactive)
CC(=O)Oc1ccc2ccc(=O)oc2c1OC(C)=O	41.9 µM (inactive)	14.9 µM (inactive)	30.1 µM (inactive)	11.6 µM	24.4 µM (inactive)	10.6 µM (inactive)	22.7 µM (inactive)	27.2 µM (inactive)	32 µM (inactive)	82.4 µM (inactive)	36.3 µM (inactive)	> 100 µM (inactive)	44.4 µM (inactive)	43.4 µM (inactive)	43.6 µM (inactive)	29.5 µM (inactive)	33.3 µM (inactive)	78.2 µM (inactive)	61.9 µM (inactive)	73.1 µM (inactive)
COc1ccc(N(C(=O)NCCO)c2ccccc2)cc1	> 100 µM (inactive)	> 100 µM (inactive)	> 100 µM (inactive)	> 100 µM	> 100 µM (inactive)	> 100 µM (inactive)	> 100 µM (inactive)	> 100 µM (inactive)	> 100 µM (inactive)	> 100 µM (inactive)	> 100 µM (inactive)	> 100 µM (inactive)	> 100 µM (inactive)	> 100 µM (inactive)	> 100 µM (inactive)	> 100 µM (inactive)	> 100 µM (inactive)	> 100 µM (inactive)	> 100 µM (inactive)	> 100 µM (inactive)
Oc1cccc2cc(Br)cnc12	3.21 µM (inactive)	5.89 µM (inactive)	5.97 µM (inactive)	4.43 µM	29.2 µM (inactive)	2.37 µM (inactive)	16.7 µM (inactive)	6.5 µM (inactive)	5.92 µM (inactive)	4.3 µM (inactive)	4.97 µM (inactive)	28.2 µM (inactive)	7.5 µM (inactive)	10 µM (inactive)	24.5 µM (inactive)	4.35 µM (inactive)	3.29 µM (inactive)	35.8 µM (inactive)	27.9 µM (inactive)	41.1 µM (inactive)

Reference: ChEMBL document CHEMBL1201862, “PubChem BioAssay data set” (2004)
